According to patent publication US20180002288A1, “USE OF PICOLINAMIDES AS FUNGICIDES” (DOW AGROSCIENCES LLC, priority 2014, published 2018):
Like-named read-outs stand apart in the source and are kept apart here.

How the values were obtained:
Zymoseptoria tritici = experiment: Leaf Blotch of Wheat fungicidal activity (SEPTTR); assay type: in vivo; conditions: for pest or weed control at 100 ppm: wheat, high volume; for pest or weed control at 121.5 g/ha: Low Volume Cereal Activity at 121.5 g/Ha
Description: (§1) All fungicides were evaluated using the aforementioned method for their activity vs. all target diseases, unless stated otherwise. Wheat leaf blotch and brown rust activity were also evaluated using track spray applications, in which case the fungicides were formulated as EC formulations, containing 0.1% Trycol 5941 in the spray solutions. Wheat plants (variety Yuma) were grown from seed in a greenhouse in 50% mineral soil/50% soil-less Metro mix until the first leaf was fully emerged, with 7-10 seedlings per pot. These plants were inoculated with an aqueous spore suspension of Zymoseptoria tritici either prior to or after fungicide treatments. After inoculation the plants were kept in 100% relative humidity (one day in a dark dew chamber followed by two to three days in a lighted dew chamber at 20° C.) to permit spores to germinate and infect the leaf. The plants were then transferred to a greenhouse set at 20° C. for disease to develop. When disease symptoms were fully expressed on the 1st leaves of untreated plants, infection levels were assessed on a scale of 0 to 100 percent disease severity. Percent disease control was calculated using the ratio of disease severity on treated plants relative to untreated plants.

Puccinia triticina = experiment: Wheat Brown Rust fungicidal activity (PUCCRT); assay type: in vivo; conditions: for pest or weed control at 100 ppm: wheat, high volume; for pest or weed control at 121.5 g/ha: Low Volume Cereal Activity at 121.5 g/Ha
Description: as §1, with “plants. Wheat plants (variety Yuma) were grown from seed in a greenhouse in 50% mineral soil/50% soil-less Metro mix until the first leaf was fully emerged, with 7-10 seedlings per pot. These plants were inoculated with an aqueous spore suspension of Puccinia triticina either prior to or after fungicide treatments. […] The plants were then transferred to a greenhouse set at 24° C. for disease to develop. Fungicide formulation, application and disease assessment followed the procedures as described in the Example A.” for “plants.”

[1] = 24 h, 1 Day Protectant, read-out: SEPTTR 1DP % Control rating
[2] = 72 h, 3 Day Curative, read-out: SEPTTR 3DC % Control rating
[3] = 24 h, 1 Day Protectant, read-out: PUCCRT 1DP % Control rating
[4] = 72 h, 3 Day Curative, read-out: PUCCRT 3DC % Control rating
[5] = 24 h, 1 Day Protectant, read-out: SEPTTR 1DP (Wheat Leaf Blotch, 1 Day Protectant)
[6] = 72 h, 3 Day Curative, read-out: SEPTTR 3DC (Wheat Leaf Blotch, 3 Day Curative)
[7] = 24 h, 1 Day Protectant, read-out: PUCCRT 1DP (Wheat Brown Rust, 1 Day Protectant)
[8] = 72 h, 3 Day Curative, read-out: PUCCRT 3DC (Wheat Brown Rust, 3 Day Curative)

SMILES	pest or weed control at 100 ppm (Zymoseptoria tritici; [1]) [%]	pest or weed control at 100 ppm (Zymoseptoria tritici; [2]) [%]	pest or weed control at 100 ppm (Puccinia triticina; [3]) [%]	pest or weed control at 100 ppm (Puccinia triticina; [4]) [%]	pest or weed control at 121.5 g/ha (Zymoseptoria tritici; [5]) [%]	pest or weed control at 121.5 g/ha (Zymoseptoria tritici; [6]) [%]	pest or weed control at 121.5 g/ha (Puccinia triticina; [7]) [%]	pest or weed control at 121.5 g/ha (Puccinia triticina; [8]) [%]
CCCO[C@H](c1ccccc1)[C@H](C)OC(=O)[C@H](C)NC(=O)c1nccc(OC)c1O [Example 137]	> 80	> 80	> 80	> 80	–	–	–	–
COc1ccnc(C(=O)N[C@@H](C)C(=O)O[C@@H](C)[C@H](Oc2ccccc2)c2cccc3ccccc23)c1O [Example 165]	> 80	> 80	> 80	> 80	–	–	–	–
COc1ccnc(C(=O)N[C@@H](C)C(=O)O[C@@H](C)[C@H](Oc2ccc(Cl)cc2Cl)c2ccccc2)c1O [Example 120]	> 80	< 80	> 80	< 80	–	–	–	–
COc1ccnc(C(=O)N[C@@H](C)C(=O)O[C@@H](C)[C@@H](Oc2ccccc2)c2ccccc2)c1O [Example 135]	> 80	> 80	> 80	< 0	–	–	–	–
COc1cc(C)ccc1[C@@H](Oc1ccccc1)[C@H](C)OC(=O)[C@H](C)NC(=O)c1nccc(OC)c1O [Example 172]	> 80	> 80	> 80	> 80	–	–	–	–
COc1ccnc(C(=O)N[C@@H](C)C(=O)O[C@@H](C)[C@H](OC)c2ccccc2)c1OC(C)=O [Example 231]	–	–	–	–	< 0	> 80	< 0	> 80
COc1ccnc(C(=O)N[C@@H](C)C(=O)O[C@@H](C)[C@H](Oc2ccccc2)c2ccc(-c3ccccc3)cc2)c1OCOC(C)=O [Example 239]	–	–	–	–	> 80	> 80	> 80	< 80
COc1cc(F)ccc1[C@@H](Oc1ccc(C)cc1Cl)[C@H](C)OC(=O)[C@H](C)NC(=O)c1nccc(OC)c1O [Example 169]	> 80	> 80	> 80	< 80	–	–	–	–
COc1ccnc(C(=O)N[C@@H](C)C(=O)O[C@@H](C)[C@H](Oc2ccccc2)c2ccc(C)cc2F)c1O [Example 164]	> 80	> 80	> 80	> 80	–	–	–	–
COc1ccnc(C(=O)N[C@@H](C)C(=O)O[C@@H](C)[C@H](Oc2cc(F)ccc2F)c2ccccc2)c1O [Example 121]	< 80	> 80	> 80	< 80	–	–	–	–
CCCO[C@@H](c1ccccc1)[C@H](C)OC(=O)[C@H](C)NC(=O)c1nccc(OC)c1OC(C)=O [Example 227]	–	–	–	–	< 80	> 80	> 80	> 80
C=CCOc1cc(F)ccc1[C@@H](Oc1ccccc1)[C@H](C)OC(=O)[C@H](C)NC(=O)c1nccc(OC)c1O [Example 167]	> 80	> 80	> 80	> 80	–	–	–	–
COc1ccnc(C(=O)N[C@@H](C)C(=O)O[C@@H](C)[C@@H](Oc2ccccc2)c2cccs2)c1O [Example 129]	> 80	< 80	< 80	< 80	–	–	–	–
COc1ccnc(C(=O)N[C@@H](C)C(=O)O[C@@H](C)[C@H](Oc2ccccc2)c2ccc(F)cc2)c1O [Example 148]	< 80	> 80	> 80	< 80	–	–	–	–
COc1ccnc(C(=O)N[C@@H](C)C(=O)O[C@H](C)[C@@H](Oc2ccccc2)c2ccccc2)c1O [Example 115]	< 0	< 80	< 0	> 80	–	–	–	–
COc1ccnc(C(=O)N[C@@H](C)C(=O)O[C@@H](C)[C@H](Oc2cc(F)cc(Cl)c2)c2ccccc2)c1O [Example 122]	> 80	> 80	> 80	> 80	–	–	–	–
CC[C@H](NC(=O)c1nccc(OC)c1OC(C)=O)C(=O)O[C@@H](C)[C@H](Oc1cc(F)ccc1F)c1ccccc1 [Example 194]	–	–	–	–	< 80	< 0	> 80	< 80
COc1ccnc(C(=O)N[C@@H](C)C(=O)O[C@@H](C)[C@H](OCC2CC2)c2ccccc2)c1O [Example 113]	> 80	> 80	> 80	< 80	–	–	–	–
COc1ccnc(C(=O)N[C@@H](C)C(=O)O[C@@H](C)[C@H](Oc2ccccc2)c2ccc3ccccc3c2)c1O [Example 166]	> 80	> 80	> 80	> 80	–	–	–	–
COc1ccnc(C(=O)N[C@@H](C)C(=O)O[C@@H](C)[C@H](Oc2cc(F)ccc2F)c2ccccc2)c1OCOC(C)=O [Example 191]	–	–	–	–	< 0	< 80	> 80	> 80
COc1ccnc(C(=O)N[C@H](C)C(=O)O[C@H](C)[C@@H](Oc2ccccc2)c2ccccc2)c1O [Example 116]	< 0	< 80	< 0	< 0	–	–	–	–
COc1ccnc(C(=O)N[C@H](C(=O)O[C@@H](C)[C@H](Oc2ccc(C(F)(F)F)cc2)c2ccccc2)C(C)C)c1O [Example 126]	< 0	< 80	< 80	< 0	–	–	–	–
COc1ccnc(C(=O)N[C@@H](C)C(=O)O[C@@H](C)[C@H](Oc2ccccc2)c2cccc(-c3ccccc3)c2)c1OCOC(C)=O [Example 240]	–	–	–	–	> 80	> 80	> 80	< 80
COc1ccnc(C(=O)N[C@@H](C)C(=O)O[C@@H](C)[C@H](Oc2ccc(C(F)(F)F)cc2)c2ccccc2)c1OCOC(C)=O [Example 195]	–	–	–	–	> 80	> 80	> 80	< 80
COc1ccnc(C(=O)N[C@@H](C)C(=O)O[C@@H](C)[C@@H](Oc2ccc(Cl)cc2Cl)c2ccccc2)c1O [Example 134]	> 80	< 80	> 80	> 80	–	–	–	–
COc1ccnc(C(=O)N[C@@H](C)C(=O)O[C@@H](C)[C@H](Oc2cc(F)cc(Cl)c2)c2ccccc2)c1OCOC(C)=O [Example 206]	–	–	–	–	> 80	> 80	> 80	< 80
